Tested on: SMN2
Experiment: SMN2 splicing pattern, semi-quantitative RT-PCR in SMN2-NSC34 cells
Type: cell-based, mouse
Set-up: key to SMN2 splicing pattern SMN2-NSC34: −: no effect; +: effective; +++: most effective
Description: Cell culture and chemical/dsRNA treatment. Mouse embryonic fibroblasts (MEFs) were prepared using the standard protocol. Briefly, E13.5 day embryo was isolated; the uterine deciduas were cut away, and the yolk sac was removed. The embryo was then scraped out to remove non-fibroblastic tissue, and the head severed for genotyping. Embryo body was minced in 0.25% Trypsin-EDTA and incubated for 30 min. It was then added to MEF culture media, and the cell suspension spun for ˜5 min at 1,000 rpm in the tissue culture centrifuge to pellet cells. The supernatant was aspirated off and the cell pellet immediately resuspended in 10 mL of fresh MEF culture media. The MEFs were allowed to reach confluency so the cells could be passaged for further experiments. Cultured MEFs and SMN2-NSC34 cells were maintained in Dulbecco's modified Eagle medium (Invitrogen, Carlsbad, Calif.) containing 10% heat-inactivated fetal bovine serum (Hyclone, Logan, Utah) and 1% penicillin-streptomycin (Invitrogen, Carlsbad, Calif.) and were incubated at 37° C. in a 5% CO2 humidified atmosphere. The cells were plated the day preceding treatment with each chemical and harvested at the indicated time.
Semi-quantitative PCR/RT-PCR. The genomic DNA from E13.5 SMA embryos was extracted. A specific primer pair, SMN forward 5′-[…]-3′ (SEQ ID NO:21) and SMN backward 5′-[…]-3′ (SEQ ID NO:22), was designed for recognition of both murine Smn and human SMN2. The PCR program initially started with a 95° C. denaturation for 10 min, followed by 19 to 26 cycles of 95° C./1 min. 53° C./1.5 min, 72° C./2 min to assay the linear range for both Smn and SMN2. For RT-PCR assay, total RNA was extracted at indicated time points from SMN2-NSC34 cells with sodium vanadate, TSA, and aclarubicin treatment or with an increasing amount of Stat5A1*6 transfection by using the TRizol reagent (Invitrogen, Carlsbad, Calif.). To amplify the exon7 inclusion/exclusion form of SMN2 transcripts, RT-PCR were performed using a primer set P5P6 as previously described (15). The transcript from the mouse glyceraldehyde-3-phosphate dehydrogenase (Gapdh) gene or the β-Actin gene was amplified using the primer pairs: Gapdh forward: 5′-[…]-3′ (SEQ ID NO:23), and backward: 5′-[…]-3′ (SEQ ID NO:24) (56° C.), and β-Actin forward: 5′-[…]-3′ (SEQ ID NO:25), and backward 5′-[…]-3′ (SEQ ID NO:26) (59° C.), and this allowed control of equal amounts of template. […] The gel images were digitally captured with a CCD camera and analyzed with the Alphalmager™. […] Relative total SMN2 transcript levels were determined from Stat5A1*6 transfected SMN2-NSC34 cells in a minimum of three independent experiments. Differences in ratios were determined to be significant by an independent two-tailed t-test, with *, P<0.05, **, P<0.005, ***, p<0.001.

## Sodium vanadate
  SMN2 splicing pattern SMN2-NSC34: +++
  efficiency in increasing full length SMN2 transcripts relative to the other compounds: most efficient
  treatment time after which the full length SMN2 expression level was enhanced: 2 to 4 h

Source: patent US20080187512A1, “Treatment for spinal muscular atrophy” (Academia Sinica, priority 2007, published 2008)
